Assays:
[1] = biological target: Recombinant human c-KIT kinase (Homo sapiens (Human), UniProt P10721); assay: c-KIT Kinase Chemiluminescence Assay (ADP-Glo); type: biochemical; details: recombinant human c-KIT 25 ng, ATP 50 μM, polyEY substrate, ADP-Glo luminescence
Source text: Staurosporine (AM-2282) and Imatinib (STI571) were purchased from Selleck Chemicals LLC (Houston, TX). The c-KIT reference compound THB001 (EP-053504) was synthesized by Enanta Pharmaceuticals, Inc. (Watertown, MA). The c-KIT Kinase Enzyme System (V4498) and ADP-Glo™ Kinase Assay kit (V6930) were purchased from Promega (Madison, WI). DMSO (D2650) was purchased from Sigma-Aldrich (Burlington, MA). ECHO-650 acoustic liquid handling system (67/492,212) and 384-well LDV ECHO source plates (LP-0200) were purchased from Labcyte, Inc (San Jose, CA). Envision Multimode Plate Reader (2104/464466) and ProxiPlate-384 Plus White 384-shallow well microplates (6008280) were purchased from PerkinElmer (Waltham, MA).
c-KIT Kinase Chemiluminescence Assay:
IC50 determination. Test compounds were dispersed into a 384-well low volume while ProxiPlate microplate from a DMSO solution using an ECHO 650 acoustic dispenser to generate a 11-point, 3.162-fold dilution, concentration curve starting at 10 μM in duplicate. Kinase Reaction: The kinase assay was based on the recommended protocol by c-KIT Kinase Enzyme System from Promega. Recombinant human c-KIT kinase in 3 μL of assay buffer (40 mM Tris pH 7.5, 20 mM MgCl2, 0.1 mg/mL BSA and 50 μM DTT) was added to the test or high control wells and 3 μL of assay buffer was added to the low control wells. The microplate was centrifuged at 800 rotations per minute (rpm) for 60 s and incubated at room temperature (RT) for 30 min. Next, 2 μL of buffered ATP and polyEY substrate solution was added to all wells. The microplate was centrifuged at 800 rpm for 60 s and incubated at RT for 2 h. The final assay contained c-KIT (25 ng), ATP (50 μM), polyEY substrate (0.2 μg/μL), test compounds (0-10 μM) and DMSO (1.7%) in 5 μL assay buffer. ADP detection with ADP-Glo™ Kinase Assay: After the kinase reaction incubation, 5 μL of ADP-Glo™ reagent was added to all wells. The microplate was centrifuged at 800 rpm for 60 s and incubated at RT for 40 min. Ten microliter (10 μL) of Kinase Detection Reagent (Luciferin-Luciferase system) was then added to all wells. The microplate was centrifuged at 800 rpm for 60 s and incubated at RT for 60 min. Kinase activity was measured as increase in luminescence at RT in an Envision plate reader equipped with 560 nm filters and operating in endpoint mode.
Data Analysis: Endpoint chemiluminescence from high and low control wells were used to calculate normalized c-KIT activity at various concentrations of test compounds. The normalized activities were fitted to inhibitor-versus-normalized response fit in GraphPad Prism 7 to determine half-maximal inhibitory concentration (IC50) and hill coefficient values (H).
c-KIT activity (%)=100/(1+I^H/IC50^H).
Where I is the inhibitor concentration and H is the Hill coefficient.
IC50 ranges are reported as follows: A<100 nM; B 0.1-1 μM; C>1 μM.

[2] = system: M-07e cells; assay: M-07e Cellular Assay (SCF-mediated cell proliferation, CellTiter Glo); type: cell-based; details: Homo sapiens, SCF at EC90, 72 hours incubation, CellTiter Glo cell viability, read-out: M-7e EC50
Procedure: M-07e cells (Creative Bioarray, CSC-C0249) which endogenously express human c-KIT were used to evaluate the effect of compounds on stem cell factor (SCF)-mediated cell proliferation. M-07e cells were cultured in growth media (RPMI+10% FBS+1% penicillin/streptomycin+10 ng/mL GM-CSF) at 5E5-1.5E6 cells/mL, replenishing media every 3-4 days. 1.5E4 cells were seeded per well in 384 well tissue culture treated plates in […] assay media (RPMI+10% FBS+1% penicillin/streptomycin) without growth factor stimulation and incubated at 37° C. in a CO2 humidity-controlled incubator. Twenty-four hours later, three-fold serially diluted test compounds in media containing SCF (at the previously determined EC90) were added to the plated M-07e cells and incubated for an additional 72 hours. Cell viability was determined by adding 25 μL CellTiter Glo (Promega) to the cells and the luminescence was measured using a Perkin Elmer Envision plate reader. The EC50 was determined using GraphPad Prism. Percent cell growth was determined after normalizing the curve to the mean RLU high control (no compound control wells) at 100% and the mean RLU low control (no SCF control wells) at 0%. EC50 curves were generated using a variable slope four-parameter logistic model with equation […]. ECso ranges are reported as follows: A<100 nM; B 0.1-1 μM; C>1 μM.

Sequence of Recombinant human c-KIT kinase (P10721 26-976): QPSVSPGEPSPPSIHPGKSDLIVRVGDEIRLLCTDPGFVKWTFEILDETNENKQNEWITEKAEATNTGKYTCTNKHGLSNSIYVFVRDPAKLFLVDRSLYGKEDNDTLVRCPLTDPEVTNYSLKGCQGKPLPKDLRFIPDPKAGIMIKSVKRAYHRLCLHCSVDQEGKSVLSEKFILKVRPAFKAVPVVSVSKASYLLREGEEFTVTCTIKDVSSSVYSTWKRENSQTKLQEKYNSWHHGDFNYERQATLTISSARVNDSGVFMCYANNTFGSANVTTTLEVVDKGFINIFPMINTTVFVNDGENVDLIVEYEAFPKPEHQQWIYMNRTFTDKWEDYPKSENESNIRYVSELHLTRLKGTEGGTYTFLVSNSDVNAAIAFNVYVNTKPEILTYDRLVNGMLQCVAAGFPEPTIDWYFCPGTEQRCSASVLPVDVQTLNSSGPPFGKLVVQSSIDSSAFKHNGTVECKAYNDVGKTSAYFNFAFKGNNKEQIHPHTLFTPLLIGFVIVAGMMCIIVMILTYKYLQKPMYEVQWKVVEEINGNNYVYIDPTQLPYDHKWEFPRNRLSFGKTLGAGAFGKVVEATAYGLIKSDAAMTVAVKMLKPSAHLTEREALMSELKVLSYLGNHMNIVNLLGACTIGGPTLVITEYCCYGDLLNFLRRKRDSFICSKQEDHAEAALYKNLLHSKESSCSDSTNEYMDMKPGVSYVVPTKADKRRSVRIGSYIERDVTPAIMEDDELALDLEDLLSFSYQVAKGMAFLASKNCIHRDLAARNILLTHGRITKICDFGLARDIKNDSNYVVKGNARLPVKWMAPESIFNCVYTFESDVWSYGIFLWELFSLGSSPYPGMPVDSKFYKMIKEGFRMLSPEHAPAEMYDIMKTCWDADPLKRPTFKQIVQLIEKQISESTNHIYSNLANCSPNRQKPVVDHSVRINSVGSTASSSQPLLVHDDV

| SMILES | IC50 [1] [nM] | EC50 [2] [nM] |
| --- | --- | --- |
| Cc1ncc(-c2ncc(OC(F)(F)F)cn2)cc1NC(=O)c1cnc2ccc(N3CC4(C3)CC(O)(C(F)F)C4)cn12 [Example 14] | > 1000 |  |
| Cc1sc(-c2noc(C3CC(F)(F)C3)n2)cc1NC(=O)c1cnc2ccccn12 [Example 4] | 100 to 1000 | 100 to 1000 |
| O=C(Nc1cc(-c2noc(C3CC(F)(F)C3)n2)ccn1)c1cnc2ccccn12 [Example 2] | > 1000 | > 1000 |
| O=C(Nc1cc(-c2noc([C@H]3C[C@@H]3F)n2)ccn1)c1cnc2ccccn12 [Example 1] | > 1000 | > 1000 |

Second part, led by results:

| IC50 [1] [nM] | SMILES | EC50 [2] [nM] |
| --- | --- | --- |
| 100 to 1000 | Cc1ncc(-c2noc([C@H]3C[C@@H]3F)n2)cc1NC(=O)c1cnc2cc(N3CC4(C3)CC(O)(C(F)F)C4)ccn12 [Example 17] |  |
| 100 to 1000 | Cc1ncc(-c2noc([C@H]3C[C@@H]3F)n2)cc1NC(=O)c1cnc2ccc(N3CC4(C3)CC(O)(C(F)F)C4)cn12 [Example 15] |  |
| 100 to 1000 | Cc1ncc(-c2nnn(C3CC(F)(F)C3)n2)cc1NC(=O)c1cnc2ccc(N3CC4(C3)CC(O)(C(F)F)C4)cn12 [Example 16] |  |
| 100 to 1000 | Cc1sc(-c2noc([C@H]3C[C@@H]3F)n2)cc1NC(=O)c1cnc2ccccn12 [Example 3] | 100 to 1000 |

— patent US20250042898A1, “Pharmaceutical Compounds And Compositions As c-Kit Kinase Inhibitors” (Enanta Pharmaceuticals, Inc., priority 2023, published 2025)
